Measured values taken from PMC3700073, “Synthesis and Biological Activity of New Thiopyrano[2,3-d]thiazoles Containing a Naphthoquinone Moiety” (Scientia Pharmaceutica, 2013).

What was measured:
OVCAR-3 (ovarian cancer) = test: NCI five-dose assay; format: cell-based; details: Homo sapiens, OVCAR-3, OVCAR-3, ovarian cancer
HCT-116 (colon cancer) = test: NCI five-dose assay; format: cell-based; details: Homo sapiens, HCT-116, HCT-116, colon cancer
MOLT-4 (leukemia) = test: NCI five-dose assay; format: cell-based; details: Homo sapiens, MOLT-4, MOLT-4, leukemia
PC-3 (prostate cancer) = test: NCI five-dose assay; format: cell-based; details: Homo sapiens
U251 (CNS cancer) = test: NCI five-dose assay; format: cell-based; details: Homo sapiens, U-251, U251, CNS cancer
UO-31 (renal cancer) = test: NCI five-dose assay; format: cell-based; details: Homo sapiens, UO-31, UO-31, renal cancer
HL-60(TB) (leukemia) = test: NCI five-dose assay; format: cell-based; details: Homo sapiens, HL-60, HL-60(TB)
OVCAR-4 (ovarian cancer) = test: NCI five-dose assay; format: cell-based; details: Homo sapiens, OVCAR-4, OVCAR-4, ovarian cancer
M14 (melanoma) = test: NCI five-dose assay; format: cell-based; details: Homo sapiens
[1] = tested on: MDA-MB-435 (breast cancer); test: NCI five-dose assay; format: cell-based; details: Homo sapiens, MDA-MB-435, MDA-MB-435, breast cancer
A498 (renal cancer) = test: NCI five-dose assay; format: cell-based; details: Homo sapiens
K-562 (leukemia) = test: NCI five-dose assay; format: cell-based; details: Homo sapiens, K562, K-562, leukemia
OVCAR-8 (ovarian cancer) = test: NCI five-dose assay; format: cell-based; details: Homo sapiens, OVCAR-8, OVCAR-8, ovarian cancer
EKVX (NSCL cancer) = test: NCI five-dose assay; format: cell-based; details: Homo sapiens
LOX IMVI (melanoma) = test: NCI five-dose assay; format: cell-based; details: Homo sapiens
HOP-62 (NSCL cancer) = test: NCI five-dose assay; format: cell-based; details: Homo sapiens, HOP-62, HOP-62, NSCL cancer
[2] = tested on: NCI/ADR-RES (breast cancer); test: NCI five-dose assay; format: cell-based; details: Homo sapiens
A549/ATCC (NSCL cancer) = test: NCI five-dose assay; format: cell-based; details: Homo sapiens
T-47D (breast cancer) = test: NCI five-dose assay; format: cell-based; details: Homo sapiens, T47D
OVCAR-5 (ovarian cancer) = test: NCI five-dose assay; format: cell-based; details: Homo sapiens, OVCAR-5, OVCAR-5, ovarian cancer
SF-268 (CNS cancer) = test: NCI five-dose assay; format: cell-based; details: Homo sapiens, SF-268, SF-268, CNS cancer
ACHN (renal cancer) = test: NCI five-dose assay; format: cell-based; details: Homo sapiens
786-0 (renal cancer) = test: NCI five-dose assay; format: cell-based; details: Homo sapiens, 786-0, 786-0, renal cancer
[3] = tested on: MDA-MB-231/ATCC (breast cancer); test: NCI five-dose assay; format: cell-based; details: Homo sapiens, MDA-MB-231, MDA-MB-231/ATCC
SK-MEL-2 (melanoma) = test: NCI five-dose assay; format: cell-based; details: Homo sapiens, SK-MEL-2, SK-MEL-2, melanoma
UACC-62 (melanoma) = test: NCI five-dose assay; format: cell-based; details: Homo sapiens, UACC-62, UACC-62, melanoma
NCI-H522 (NSCL cancer) = test: NCI five-dose assay; format: cell-based; details: Homo sapiens
SK-MEL-28 (melanoma) = test: NCI five-dose assay; format: cell-based; details: Homo sapiens, SK-MEL-28, SK-MEL-28, melanoma
NCI-H226 (NSCL cancer) = test: NCI five-dose assay; format: cell-based; details: Homo sapiens
DU-145 (prostate cancer) = test: NCI five-dose assay; format: cell-based; details: Homo sapiens, DU-145, DU-145, prostate cancer
MALME-3M (melanoma) = test: NCI five-dose assay; format: cell-based; details: Homo sapiens
HOP-92 (NSCL cancer) = test: NCI five-dose assay; format: cell-based; details: Homo sapiens, HOP-92, HOP-92, NSCL cancer
CCRF-CEM (leukemia) = test: NCI five-dose assay; format: cell-based; details: Homo sapiens
male mice = test: Acute toxicity in vivo, median lethal dose; details: intraperitoneal, approximate LD50 (Litchfield and Wilcoxon)
Procedure: The synthesized compounds were evaluated for their approximate LD50 in male mice. The mice were kept under a constant temperature and humidity in sterile cages with water and food. The stock solutions of the compounds used in this study were prepared immediately before usage and injected intraperitoneally (ip). The LD50 values (Tab. 3) were calculated using the method described by Litchfield and Wilcoxon.
The median lethal dose (LD50), the dose of the selected compounds that causes 50% mortality in mice, was determined from dose–response curves with at least four doses by the method of Litchfield and Wilcoxon.

KM12 (colon cancer) = test: NCI five-dose assay; format: cell-based; details: Homo sapiens
SK-MEL-5 (melanoma) = test: NCI five-dose assay; format: cell-based, human; details: for GI50: Homo sapiens, SK-MEL-5, SK-MEL-5, melanoma; for TGI of the most sensitive cell line: SK-MEL-5 /melanoma/

## COc1cc(C2C3=C(Sc4[nH]c(=O)sc42)C(=O)c2ccccc2C3=O)ccc1OCc1ccccc1 (centres unmarked) [Compound 4e, 11-[4-(Benzyloxy)-3-methoxyphenyl]-3,11-dihydro-2H-benzo[6,7]thiochromeno[2,3-d]-[1,3]thiazole-2,5,10-trione]
OVCAR-3 (ovarian cancer)
  GI50: 11.2 µM
HCT-116 (colon cancer)
  GI50: 15.6 µM
MOLT-4 (leukemia)
  GI50: 17.3 µM
PC-3 (prostate cancer)
  GI50: 17.7 µM
U251 (CNS cancer)
  GI50: 15.1 µM
UO-31 (renal cancer)
  GI50: 5.62 µM
HL-60(TB) (leukemia)
  GI50: 15.2 µM
OVCAR-4 (ovarian cancer)
  GI50: 4.48 µM
M14 (melanoma)
  GI50: 6.9 µM
[1]
  GI50: 12 µM
A498 (renal cancer)
  GI50: 20.5 µM
K-562 (leukemia)
  GI50: 19.4 µM
OVCAR-8 (ovarian cancer)
  GI50: 13.9 µM
EKVX (NSCL cancer)
  GI50: 16.3 µM
LOX IMVI (melanoma)
  GI50: 8.03 µM
HOP-62 (NSCL cancer)
  GI50: 14.9 µM
[2]
  GI50: 22.7 µM
A549/ATCC (NSCL cancer)
  GI50: 3.16 µM
T-47D (breast cancer)
  GI50: 16.1 µM
OVCAR-5 (ovarian cancer)
  GI50: 32.1 µM
SF-268 (CNS cancer)
  GI50: 14.1 µM
ACHN (renal cancer)
  GI50: 17.8 µM
786-0 (renal cancer)
  GI50: 32.6 µM
[3]
  GI50: 7.81 µM
SK-MEL-2 (melanoma)
  GI50: 20.3 µM
UACC-62 (melanoma)
  GI50: 12.5 µM
NCI-H522 (NSCL cancer)
  GI50: 15.9 µM
SK-MEL-28 (melanoma)
  GI50: 12.2 µM
NCI-H226 (NSCL cancer)
  GI50: 19.2 µM
DU-145 (prostate cancer)
  GI50: 4.19 µM
MALME-3M (melanoma)
  GI50: 7.12 µM
HOP-92 (NSCL cancer)
  GI50: 11.5 µM
CCRF-CEM (leukemia)
  GI50: 23.4 µM
Male mice
  LD50ip: >1000 mg/kg
KM12 (colon cancer)
  GI50: 16.9 µM
SK-MEL-5 (melanoma)
  GI50: 2.62 µM
  TGI of the most sensitive cell line: 2.62 / 6.90 μM

## COc1ccc(C2C3=C(Sc4[nH]c(=O)sc42)C(=O)c2ccccc2C3=O)cc1OC (centres unmarked) [Compound 4f, 11-(3,4-Dimethoxyphenyl)-3,11-dihydro-2H-benzo[6,7]thiochromeno[2,3-d][1,3]thiazole-2,5,10-trione]
OVCAR-3 (ovarian cancer)
  GI50: 3.01 µM
HCT-116 (colon cancer)
  GI50: 3.47 µM
MOLT-4 (leukemia)
  GI50: 3.88 µM
PC-3 (prostate cancer)
  GI50: 5.41 µM
U251 (CNS cancer)
  GI50: 4.27 µM
UO-31 (renal cancer)
  GI50: 10.8 µM
HL-60(TB) (leukemia)
  GI50: 1.98 µM
OVCAR-4 (ovarian cancer)
  GI50: 2.48 µM
M14 (melanoma)
  GI50: 2.67 µM
[1]
  GI50: 2.19 µM
A498 (renal cancer)
  GI50: 4.91 µM
K-562 (leukemia)
  GI50: 4.97 µM
OVCAR-8 (ovarian cancer)
  GI50: 4.02 µM
EKVX (NSCL cancer)
  GI50: 4.97 µM
LOX IMVI (melanoma)
  GI50: 1.26 µM
HOP-62 (NSCL cancer)
  GI50: 5.87 µM
[2]
  GI50: 7.07 µM
A549/ATCC (NSCL cancer)
  GI50: 2.35 µM
T-47D (breast cancer)
  GI50: 3.42 µM
OVCAR-5 (ovarian cancer)
  GI50: 17.7 µM
SF-268 (CNS cancer)
  GI50: 4.89 µM
ACHN (renal cancer)
  GI50: 9.24 µM
786-0 (renal cancer)
  GI50: 15.2 µM
[3]
  GI50: 3.13 µM
SK-MEL-2 (melanoma)
  GI50: 4.19 µM
UACC-62 (melanoma)
  GI50: 2.21 µM
NCI-H522 (NSCL cancer)
  GI50: 7.91 µM
SK-MEL-28 (melanoma)
  GI50: 6.22 µM
NCI-H226 (NSCL cancer)
  GI50: 5.43 µM
DU-145 (prostate cancer)
  GI50: 1.68 µM
MALME-3M (melanoma)
  GI50: 2.12 µM
HOP-92 (NSCL cancer)
  GI50: 5.26 µM
CCRF-CEM (leukemia)
  GI50: 4.38 µM
Male mice
  LD50ip: 410 mg/kg
KM12 (colon cancer)
  GI50: 5.99 µM
SK-MEL-5 (melanoma)
  GI50: 1.52 µM
  TGI of the most sensitive cell line: 1.52 / 2.85 μM
